Reference: US20240376126A1, “PRMT5 INHIBITOR AND THE USE THEREOF” (CYTOSINLAB THERAPEUTICS CO., LTD., priority 2022, published 2024)

Tests used:
HCT116 MTAP WT cells = assay: Proliferation inhibition of HCT116 cells in vitro (CellTiter Glo, 6 days); format: cell-based; conditions: Homo sapiens, HCT-116, 144 h, read-out: Cell proliferation inhibition rate HCT116 MTAP WT IC50 (nm)
[1] = tested on: HCT116-MTAP-KO (MTAP null) cells; assay: Proliferation inhibition of HCT116 MTAP-KO cells in vitro (CellTiter Glo, 6 days); format: cell-based; conditions: HCT116-MTAP null, 144 h, read-out: Cell proliferation inhibition rate HCT116-MTAP null IC50 (nm)

| Structure (SMILES) | IC50 (HCT116 MTAP WT cells) | IC50 [1] |
| --- | --- | --- |
| Cc1ncc2c(N)nc3cc(F)c(C(=O)N4C(C)COC[C@@H]4c4cn5ccccc5n4)cc3n12 (stereo partly shown) [Example 176] | 1 to 10 µM | 0.1 to 1 µM |
| COC1CC(N(Cc2cn3ccccc3n2)C(=O)c2cc3c(cc2F)nc(N)c2cnc(C)n23)C1 (stereo not shown) [Example 177] | 1 to 10 µM | 0.1 to 1 µM |
| CCN(Cc1cn2cc(C(F)(F)F)ccc2n1)C(=O)c1cc2c(cc1F)nc(N)c1cnc(C)n12 [Example 178] | 1 to 10 µM | 0.1 to 1 µM |
| Cc1ncc2c(N)nc3cc(F)c(C(=O)N(Cc4cn5ccccc5n4)C4CCC4)cc3n12 [Example 179] | 1 to 10 µM | < 0.1 µM |
| Cc1ncc2c(N)nc3cc(F)c(C(=O)N(Cc4cn5ccccc5n4)CC(F)(F)F)cc3n12 [Example 180] | 1 to 10 µM | 0.1 to 1 µM |
| Cc1ncc2c(N)nc3cc(F)c(C(=O)N(Cc4cn5ccccc5n4)c4cnn(C)c4)cc3n12 [Example 181] | 1 to 10 µM | 0.1 to 1 µM |
| Cc1ncc2c(N)nc3cc(F)c(C(=O)N(Cc4cn5cc(C(F)(F)C(F)(F)F)ccc5n4)CC(C)C)cc3n12 [Example 182] | 0.1 to 1 µM | < 0.1 µM |
| Cc1ncc2c(N)nc3cc(F)c(C(=O)N(Cc4cn5cc(C(F)(F)F)ccc5n4)c4cnn(C)c4)cc3n12 [Example 183] | 1 to 10 µM | < 0.1 µM |
| CCN(Cc1cn2ccccc2n1)C(=O)c1cc2c(cc1F)nc(N)c1cnc(C)n12 [Example 184] | 1 to 10 µM | 0.1 to 1 µM |
| COC1CCCC1N(Cc1cn2ccccc2n1)C(=O)c1cc2c(cc1F)nc(N)c1cnc(C)n12 (stereo not shown) [Example 185] | 1 to 10 µM | < 0.1 µM |
| Cc1cn2c(n1)c(N)nc1cc(F)c(C(=O)N(Cc3nc4ccccn4c3F)CC(C)C)cc12 [Example 188] | 1 to 10 µM | < 0.1 µM |
| Cc1ncc2c(N)nc3cc(F)c(C(=O)N(Cc4cn5ccccc5n4)C4CCCC4O)cc3n12 (stereo not shown) [Example 190] | 1 to 10 µM | 0.1 to 1 µM |
| CCN(Cc1cn2ccccc2n1)C(=O)c1cc2c(cc1Cl)nc(N)c1cnc(C)n12 [Example 192] | 1 to 10 µM | 0.1 to 1 µM |
| Cc1ncc2c(N)nc3cc(F)c(C(=O)N(Cc4nc5ccccn5c4F)CC(C)C)cc3n12 [Example 194] | 1 to 10 µM | < 0.1 µM |
| Cc1ncc2c(N)nc3cc(F)c(C(=O)N(Cc4cn5cccc(C(F)(F)F)c5n4)c4cnn(C)c4)cc3n12 [Example 195] | 1 to 10 µM | 0.1 to 1 µM |
| Cc1ncc2c(N)nc3cc(F)c(C(=O)N(Cc4cn5ccccc5n4)c4cccnc4)cc3n12 [Example 199] | 1 to 10 µM | 0.1 to 1 µM |
| Cc1ncc2c(N)nc3cc(F)c(C(=O)N4C(c5cc6ccccn6n5)COC[C@H]4C)cc3n12 (stereo partly shown) [Example 203] | 1 to 10 µM | < 0.1 µM |
| Cc1ncn2c1c(N)nc1cc(F)c(C(=O)N(Cc3nc4ccccn4c3F)c3cnn(C)c3)cc12 [Example 205] | 1 to 10 µM | < 0.1 µM |
| CCN(Cc1cn2cc(C(F)(F)F)ncc2n1)C(=O)c1cc2c(cc1F)nc(N)c1c(C)ncn12 [Example 207] | 1 to 10 µM | < 0.1 µM |
| CCN(Cc1nc2ccccn2c1F)C(=O)c1cc2c(cc1F)nc(N)c1c(C)ncn12 [Example 209] | 1 to 10 µM | < 0.1 µM |

| Structure (SMILES) | IC50 (HCT116 MTAP WT cells) | IC50 [1] |
| --- | --- | --- |
| Cc1ncc2c(N)nc3cc(Cl)c(C(=O)N(Cc4cn5cc(C(F)(F)F)ccc5n4)c4cnn(C)c4)cc3n12 [Example 210] | 1 to 10 µM | 0.1 to 1 µM |
| Cc1ncc2c(N)nc3cc(F)c(C(=O)N(Cc4cc5c(cn4)COC5)c4cnn(C)c4)cc3n12 [Example 211] | 1 to 10 µM | 0.1 to 1 µM |
| CCN(Cc1cn2nc(C(F)(F)F)ccc2n1)C(=O)c1cc2c(cc1F)nc(N)c1c(C)ncn12 [Example 213] | 1 to 10 µM | 0.1 to 1 µM |
| CCN(Cc1cc2c(cn1)OCC2)C(=O)c1cc2c(cc1F)nc(N)c1cnc(C)n12 [Example 214] | 1 to 10 µM | 0.1 to 1 µM |
| CCN(C(=O)c1cc2c(cc1F)nc(N)c1c(C)ncn12)C1COc2cc(C(F)(F)F)ccc21 (stereo not shown) [Example 215] | 1 to 10 µM | < 0.1 µM |
| CCN(Cc1ccc2c(c1)CCO2)C(=O)c1cc2c(cc1F)nc(N)c1cnc(C)n12 [Example 216] | 1 to 10 µM | 0.1 to 1 µM |
| CCN(Cc1cn2cc(CCN3CCOCC3)ccc2n1)C(=O)c1cc2c(cc1F)nc(N)c1cnc(C)n12 [Example 217] | 1 to 10 µM | 0.1 to 1 µM |
| CCN(Cc1cc2ccc(C(F)(F)F)cn2n1)C(=O)c1cc2c(cc1F)nc(N)c1c(C)ncn12 [Example 218] | 1 to 10 µM | < 0.1 µM |
| Cc1ncc2c(N)nc3cc(F)c(C(=O)N(Cc4ccc5c(c4)CCO5)c4cnn(C)c4)cc3n12 [Example 219] | 1 to 10 µM | 0.1 to 1 µM |
| Cc1ncn2c1c(N)nc1cc(F)c(C(=O)N(c3cnn(C)c3)C3COc4ccccc43)cc12 (stereo not shown) [Example 221] | 1 to 10 µM | < 0.1 µM |
| CCN(C(=O)c1cc2c(cc1F)nc(N)c1cnc(C)n12)C1COc2cc(C(F)(F)F)ccc21 (stereo not shown) [Example 222] | 1 to 10 µM | < 0.1 µM |
| CCN(C(=O)c1cc2c(cc1F)nc(N)c1c(C)ncn12)C1COc2cc(-c3cccnc3)ccc21 (stereo not shown) [Example 223] | 1 to 10 µM | 0.1 to 1 µM |
| CCN(C(=O)c1cc2c(cc1F)nc(N)c1c(C)ncn12)C1COc2ccccc21 (stereo not shown) [Example 224] | 1 to 10 µM | 0.1 to 1 µM |
| Cc1ncc2c(N)nc3cc(F)c(C(=O)N(c4cnn(C)c4)C4COc5ccccc54)cc3n12 (stereo not shown) [Example 225] | 1 to 10 µM | < 0.1 µM |
| Cc1ncn2c1c(N)nc1cc(F)c(C(=O)N(C)C3COc4cc(-c5cnn(C)c5)ccc43)cc12 (stereo not shown) [Example 226] | 1 to 10 µM | 0.1 to 1 µM |
| Cc1nn(C)cc1N(Cc1cc2ccccn2n1)C(=O)c1cc2c(cc1F)nc(N)c1cnc(C)n12 [Example 227] | 1 to 10 µM | < 0.1 µM |
| CCN(C(=O)c1cc2c(cc1F)nc(N)c1c(C)ncn12)C1COc2cc(Br)cnc21 (stereo not shown) [Example 228] | 1 to 10 µM | 0.1 to 1 µM |
| COc1ccc(N(Cc2cn3ccccc3n2)C(=O)c2cc3c(cc2F)nc(N)c2cnc(C)n23)cn1 [Example 229] | 1 to 10 µM | < 0.1 µM |
| Cc1ncc2c(N)nc3cc(F)c(C(=O)N(Cc4cn5cc(C(F)(F)F)ccc5n4)C4CCOC4)cc3n12 (stereo not shown) [Example 230] | 1 to 10 µM | 0.1 to 1 µM |
| Cc1nn(C)cc1N(Cc1cn2ncccc2n1)C(=O)c1cc2c(cc1F)nc(N)c1cnc(C)n12 [Example 231] | 1 to 10 µM | 0.1 to 1 µM |

| Structure (SMILES) | IC50 (HCT116 MTAP WT cells) | IC50 [1] |
| --- | --- | --- |
| Cc1ncc2c(N)nc3cc(F)c(C(=O)N(Cc4cc5ccccn5n4)C4CCOC4)cc3n12 (stereo not shown) [Example 232] | 1 to 10 µM | 0.1 to 1 µM |
| Cc1nn(C)cc1N(Cc1cn2cc(C(F)(F)F)ccc2n1)C(=O)c1cc2c(cc1F)nc(N)c1c(C)ncn12 [Example 233] | 1 to 10 µM | < 0.1 µM |
| Cc1nn(C)cc1N(Cc1cn2cc(C(F)(F)F)ccc2n1)C(=O)c1cc2c(cc1F)nc(N)c1cnc(C)n12 [Example 234] | 1 to 10 µM | < 0.1 µM |
| Cc1nn(C)cc1N(Cc1cc2ccc(C(F)(F)F)cn2n1)C(=O)c1cc2c(cc1F)nc(N)c1c(C)ncn12 [Example 235] | < 0.1 µM | < 0.1 µM |
| Cc1nn(C)cc1N(Cc1cc2ccc(C(F)(F)F)cn2n1)C(=O)c1cc2c(cc1F)nc(N)c1cnc(C)n12 [Example 236] | 1 to 10 µM | < 0.1 µM |
| Cc1nn(C)cc1N(Cc1nc2ccccc2[nH]1)C(=O)c1cc2c(cc1F)nc(N)c1c(C)ncn12 [Example 237] | 1 to 10 µM | 0.1 to 1 µM |
| Cc1ncc2c(N)nc3cc(F)c(C(=O)N(Cc4cn5cc(C(F)(F)F)ccc5n4)c4ccnn4C)cc3n12 [Example 239] | 1 to 10 µM | < 0.1 µM |
| Cc1ncc2c(N)nc3cc(F)c(C(=O)N(Cc4cn5cc(C(F)(F)F)ccc5n4)c4c(F)cnn4C)cc3n12 [Example 241, 4-amino-7-fluoro-N-(4-fluoro-2-methyl-pyrazol-3-yl)-1-methyl-N-[[6-(trifluoromethyl)imidazolo [1,2-a]pyridin-2-yl]methyl] imidazolo [1,5-a] quinoxalin-8-carboxamide] | 0.1 to 1 µM | < 0.1 µM |
| CCn1nccc1N(Cc1cn2cc(C(F)(F)F)ccc2n1)C(=O)c1cc2c(cc1F)nc(N)c1cnc(C)n12 [Example 242] | 0.1 to 1 µM | < 0.1 µM |
| Cc1ncc2c(N)nc3cc(F)c(C(=O)N(Cc4cn5cc(CN6CCOCC6)ccc5n4)c4ccnn4C)cc3n12 [Example 243] | 1 to 10 µM | 0.1 to 1 µM |
| Cc1ncc2c(N)nc3cc(F)c(C(=O)N(Cc4cn5ccccc5n4)c4ccnn4C)cc3n12 [Example 244] | 1 to 10 µM | < 0.1 µM |
| Cc1ncc2c(N)nc3cc(F)c(C(=O)N(Cc4nc5ccc(C(F)(F)F)cc5[nH]4)c4ccnn4C)cc3n12 [Example 245] | 1 to 10 µM | < 0.1 µM |
| Cc1ncc2c(N)nc3cc(F)c(C(=O)N(Cc4cn5cc(C(F)(F)F)ccc5n4)c4ccnn4C(F)F)cc3n12 [Example 246] | 1 to 10 µM | < 0.1 µM |
| CCN(Cc1cn2cc(-c3cnn(C)c3)ccc2n1)C(=O)c1cc2c(cc1F)nc(N)c1cnc(C)n12 [Example 247] | 1 to 10 µM | 0.1 to 1 µM |
| CCN(Cc1cn2cc(CN3CCOCC3)ccc2n1)C(=O)c1cc2c(cc1F)nc(N)c1c(C)ncn12 [Example 249] | 1 to 10 µM | 0.1 to 1 µM |
| CCN(Cc1cc2ccccn2n1)C(=O)c1cc2c(cc1F)nc(N)c1cnc(C)n12 [Example 250] | 1 to 10 µM | < 0.1 µM |
| Cc1ncc2c(N)nc3cc(F)c(C(=O)N(Cc4cn5ccccc5n4)CC(F)F)cc3n12 [Example 252] | 1 to 10 µM | 0.1 to 1 µM |
| Cc1ncn2c1c(N)nc1cc(F)c(C(=O)N(Cc3cn4cc(C#N)ccc4n3)c3cnn(C)c3)cc12 [Example 253] | 1 to 10 µM | 0.1 to 1 µM |
| Cc1ncn2c1c(N)nc1cc(F)c(C(=O)N(Cc3cn4cc(CN5CCOCC5)ccc4n3)c3cnn(C)c3)cc12 [Example 254] | 1 to 10 µM | 0.1 to 1 µM |
